Experimental data reported in patent publication US9611248B2, “Chemical compounds” (Syngenta Participations AG, priority 2013, dated 2017).

Tested on: a variety of test species
Assay: Post-emergence herbicidal activity
Format: in vivo
Parameters: key to ABUTH (Abutilon theophrasti) damage score / AMARE (Amaranthus retroflexus) damage score / ALOMY (Alopecurus myosuroides) damage score / ECHCG (Echinochloa crus-galli) damage score / ZEAMX (Zea mays) damage score / SOLNI (Solanum nigrum) damage score: 0 = no damage to plant, 5 = total damage to plant
Details: evaluated after 13 days
How it was run: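 Plants grown for 8 days in pots were sprayed post-emergence with compound in acetone/water (50:50) containing 0.5% Tween 20. They were kept in a glasshouse at 24/16 °C day/night, 14 h light, 65% humidity, watered twice daily. Damage was scored after 13 days (0 none to 5 total).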

COC1=C(Cl)C(O)N(c2cc(C(C)(F)F)ccn2)C1=O (centres unmarked) [AF3]
ABUTH (Abutilon theophrasti) damage score (rate 1000 g/ha): 5
ALOMY (Alopecurus myosuroides) damage score (rate 1000 g/ha): 3
AMARE (Amaranthus retroflexus) damage score (rate 1000 g/ha): 5
ECHCG (Echinochloa crus-galli) damage score (rate 1000 g/ha): 5
SETFA (Setaria faberi) damage score (rate 1000 g/ha): 5
ZEAMX (Zea mays) damage score (rate 1000 g/ha): 1

COC1=C(C)C(=O)N(c2ncc(Cl)c(N(C)C)n2)C1O (racemic) [DD3]
ABUTH (Abutilon theophrasti) damage score (rate 1000 g/ha): 3
ALOMY (Alopecurus myosuroides) damage score (rate 1000 g/ha): 2
AMARE (Amaranthus retroflexus) damage score (rate 1000 g/ha): 4
ECHCG (Echinochloa crus-galli) damage score (rate 1000 g/ha): 2
SETFA (Setaria faberi) damage score (rate 1000 g/ha): 6
ZEAMX (Zea mays) damage score (rate 1000 g/ha): 1

CCCCNS(=O)(=O)c1cnc(N2C(=O)C(C)=C(OC)C2O)cc1C (centres unmarked) [AD96]
ABUTH (Abutilon theophrasti) damage score (rate 1000 g/ha): 3
ALOMY (Alopecurus myosuroides) damage score (rate 1000 g/ha): 4
AMARE (Amaranthus retroflexus) damage score (rate 1000 g/ha): 5
ECHCG (Echinochloa crus-galli) damage score (rate 1000 g/ha): 4
SETFA (Setaria faberi) damage score (rate 1000 g/ha): 5
ZEAMX (Zea mays) damage score (rate 1000 g/ha): 0

CC(C)=C(C)c1cnc(N2C(=O)C(C)=C(Cl)C2O)cc1C(F)(F)F (centres unmarked) [AA2]
ABUTH (Abutilon theophrasti) damage score (rate 1000 g/ha): 4
ALOMY (Alopecurus myosuroides) damage score (rate 1000 g/ha): 2
AMARE (Amaranthus retroflexus) damage score (rate 1000 g/ha): 5
ECHCG (Echinochloa crus-galli) damage score (rate 1000 g/ha): 2
SETFA (Setaria faberi) damage score (rate 1000 g/ha): 4
ZEAMX (Zea mays) damage score (rate 1000 g/ha): 2

COc1nnc(N2C(=O)C(C)=C(Cl)C2O)cc1C (centres unmarked) [BA1]
ABUTH (Abutilon theophrasti) damage score (rate 1000 g/ha): 2
ALOMY (Alopecurus myosuroides) damage score (rate 1000 g/ha): 2
AMARE (Amaranthus retroflexus) damage score (rate 1000 g/ha): 3
ECHCG (Echinochloa crus-galli) damage score (rate 1000 g/ha): 1
SETFA (Setaria faberi) damage score (rate 1000 g/ha): 2
ZEAMX (Zea mays) damage score (rate 1000 g/ha): 1

C=CCOc1nnc(N2C(=O)C(C)=C(OC)C2O)cc1C(C)C (centres unmarked) [BD6]
ABUTH (Abutilon theophrasti) damage score (rate 1000 g/ha): 1
ALOMY (Alopecurus myosuroides) damage score (rate 1000 g/ha): 1
AMARE (Amaranthus retroflexus) damage score (rate 1000 g/ha): 0
ECHCG (Echinochloa crus-galli) damage score (rate 1000 g/ha): 1
SETFA (Setaria faberi) damage score (rate 1000 g/ha): 2
ZEAMX (Zea mays) damage score (rate 1000 g/ha): 1

COC1=C(C)C(=O)N(c2cc(C(C)F)ccn2)C1O (centres unmarked) [AD18]
ABUTH (Abutilon theophrasti) damage score (rate 1000 g/ha): 4
ALOMY (Alopecurus myosuroides) damage score (rate 1000 g/ha): 3
AMARE (Amaranthus retroflexus) damage score (rate 1000 g/ha): 1
ECHCG (Echinochloa crus-galli) damage score (rate 1000 g/ha): 4
SETFA (Setaria faberi) damage score (rate 1000 g/ha): 1
ZEAMX (Zea mays) damage score (rate 1000 g/ha): 0

COC1=C(C)C(=O)N(c2cc(C)c(-c3ccccc3F)cn2)C1O (centres unmarked) [AD121]
ABUTH (Abutilon theophrasti) damage score (rate 1000 g/ha): 5
ALOMY (Alopecurus myosuroides) damage score (rate 1000 g/ha): 3
AMARE (Amaranthus retroflexus) damage score (rate 1000 g/ha): 5
ECHCG (Echinochloa crus-galli) damage score (rate 1000 g/ha): 3
SETFA (Setaria faberi) damage score (rate 1000 g/ha): 5
ZEAMX (Zea mays) damage score (rate 1000 g/ha): 1

CC1=C(Cl)C(O)N(c2cc(C)ccn2)C1=O (centres unmarked) [AA13]
ABUTH (Abutilon theophrasti) damage score (rate 1000 g/ha): 5
ALOMY (Alopecurus myosuroides) damage score (rate 1000 g/ha): 3
AMARE (Amaranthus retroflexus) damage score (rate 1000 g/ha): 4
ECHCG (Echinochloa crus-galli) damage score (rate 1000 g/ha): 4
SETFA (Setaria faberi) damage score (rate 1000 g/ha): 4
ZEAMX (Zea mays) damage score (rate 1000 g/ha): 0

CC1=C(Cl)C(O)N(c2cc(C(C)(C)C)ncn2)C1=O (centres unmarked) [CA1]
ABUTH (Abutilon theophrasti) damage score (rate 1000 g/ha): 1
ALOMY (Alopecurus myosuroides) damage score (rate 1000 g/ha): 1
AMARE (Amaranthus retroflexus) damage score (rate 1000 g/ha): 3
ECHCG (Echinochloa crus-galli) damage score (rate 1000 g/ha): 1
SETFA (Setaria faberi) damage score (rate 1000 g/ha): 2
ZEAMX (Zea mays) damage score (rate 1000 g/ha): 1

COC1=C(C)C(=O)N(c2cc(C)c(S(=O)(=O)NC(C)C)cn2)C1O (centres unmarked) [AD95]
ABUTH (Abutilon theophrasti) damage score (rate 1000 g/ha): 5
ALOMY (Alopecurus myosuroides) damage score (rate 1000 g/ha): 4
AMARE (Amaranthus retroflexus) damage score (rate 1000 g/ha): 5
ECHCG (Echinochloa crus-galli) damage score (rate 1000 g/ha): 4
SETFA (Setaria faberi) damage score (rate 1000 g/ha): 5
ZEAMX (Zea mays) damage score (rate 1000 g/ha): 0

COC(=O)c1cnc(N2C(=O)C(C)=C(OC)C2O)cc1C(F)(F)F (centres unmarked) [AD37]
ABUTH (Abutilon theophrasti) damage score (rate 1000 g/ha): 4
ALOMY (Alopecurus myosuroides) damage score (rate 1000 g/ha): 3
AMARE (Amaranthus retroflexus) damage score (rate 1000 g/ha): 5
ECHCG (Echinochloa crus-galli) damage score (rate 1000 g/ha): 3
SETFA (Setaria faberi) damage score (rate 1000 g/ha): 2
ZEAMX (Zea mays) damage score (rate 1000 g/ha): 0

COC1=C(C)C(=O)N(c2cc(C)c(-c3ccc4c(c3)OCO4)cn2)C1O (centres unmarked) [AD112]
ABUTH (Abutilon theophrasti) damage score (rate 1000 g/ha): 4
ALOMY (Alopecurus myosuroides) damage score (rate 1000 g/ha): 2
AMARE (Amaranthus retroflexus) damage score (rate 1000 g/ha): 5
ECHCG (Echinochloa crus-galli) damage score (rate 1000 g/ha): 3
SETFA (Setaria faberi) damage score (rate 1000 g/ha): 3
ZEAMX (Zea mays) damage score (rate 1000 g/ha): 1

CCOC(=O)c1cnc(N2C(=O)C(C)=C(OC)C2O)cc1Cl (centres unmarked) [AD68]
ABUTH (Abutilon theophrasti) damage score (rate 1000 g/ha): 3
ALOMY (Alopecurus myosuroides) damage score (rate 1000 g/ha): 1
AMARE (Amaranthus retroflexus) damage score (rate 1000 g/ha): 5
ECHCG (Echinochloa crus-galli) damage score (rate 1000 g/ha): 4
SETFA (Setaria faberi) damage score (rate 1000 g/ha): 5
ZEAMX (Zea mays) damage score (rate 1000 g/ha): 1

CCC1=C(Cl)C(O)N(c2cc(C(C)(C)C#N)ncn2)C1=O (centres unmarked) [CA3]
ABUTH (Abutilon theophrasti) damage score (rate 1000 g/ha): 1
ALOMY (Alopecurus myosuroides) damage score (rate 1000 g/ha): 0
AMARE (Amaranthus retroflexus) damage score (rate 1000 g/ha): 1
ECHCG (Echinochloa crus-galli) damage score (rate 1000 g/ha): 0
SETFA (Setaria faberi) damage score (rate 1000 g/ha): 0
ZEAMX (Zea mays) damage score (rate 1000 g/ha): 0

COCCCOc1cnc(N2C(=O)C(C)=C(OC)C2O)cc1C(F)(F)F (centres unmarked) [AD83]
ABUTH (Abutilon theophrasti) damage score (rate 1000 g/ha): 5
ALOMY (Alopecurus myosuroides) damage score (rate 1000 g/ha): 4
AMARE (Amaranthus retroflexus) damage score (rate 1000 g/ha): 5
ECHCG (Echinochloa crus-galli) damage score (rate 1000 g/ha): 5
SETFA (Setaria faberi) damage score (rate 1000 g/ha): 5
ZEAMX (Zea mays) damage score (rate 1000 g/ha): 1

COC1=C(C)C(=O)N(c2cc(Br)ncn2)C1O (racemic) [CD5]
ABUTH (Abutilon theophrasti) damage score (rate 1000 g/ha): 3
ALOMY (Alopecurus myosuroides) damage score (rate 1000 g/ha): 1
AMARE (Amaranthus retroflexus) damage score (rate 1000 g/ha): 4
ECHCG (Echinochloa crus-galli) damage score (rate 1000 g/ha): 1
SETFA (Setaria faberi) damage score (rate 1000 g/ha): 2
ZEAMX (Zea mays) damage score (rate 1000 g/ha): 0

COC1=C(C)C(=O)N(c2cc(C(C)(C)CCl)ccn2)C1O (centres unmarked) [AD52]
ABUTH (Abutilon theophrasti) damage score (rate 1000 g/ha): 5
ALOMY (Alopecurus myosuroides) damage score (rate 1000 g/ha): 5
AMARE (Amaranthus retroflexus) damage score (rate 1000 g/ha): 4
ECHCG (Echinochloa crus-galli) damage score (rate 1000 g/ha): 5
SETFA (Setaria faberi) damage score (rate 1000 g/ha): 5
ZEAMX (Zea mays) damage score (rate 1000 g/ha): 1

CC1=C(Cl)C(O)N(c2cc(C(C)C)c(C(=O)NC(C)(C)C)cn2)C1=O (centres unmarked) [AA49]
ABUTH (Abutilon theophrasti) damage score (rate 1000 g/ha): 3
ALOMY (Alopecurus myosuroides) damage score (rate 1000 g/ha): 2
ECHCG (Echinochloa crus-galli) damage score (rate 1000 g/ha): 1
SETFA (Setaria faberi) damage score (rate 1000 g/ha): 3
ZEAMX (Zea mays) damage score (rate 1000 g/ha): 0

CCCOc1cnc(N2C(=O)C(C)=C(OC)C2O)cc1C(F)(F)F (centres unmarked) [AD72]
ABUTH (Abutilon theophrasti) damage score (rate 1000 g/ha): 5
ALOMY (Alopecurus myosuroides) damage score (rate 1000 g/ha): 5
AMARE (Amaranthus retroflexus) damage score (rate 1000 g/ha): 5
ECHCG (Echinochloa crus-galli) damage score (rate 1000 g/ha): 5
SETFA (Setaria faberi) damage score (rate 1000 g/ha): 5
ZEAMX (Zea mays) damage score (rate 1000 g/ha): 2

COC1=C(C)C(=O)N(c2cc(C(F)(F)F)c(OCCc3ccccc3)cn2)C1O (centres unmarked) [AD85]
ABUTH (Abutilon theophrasti) damage score (rate 250 g/ha): 5
ALOMY (Alopecurus myosuroides) damage score (rate 250 g/ha): 2
AMARE (Amaranthus retroflexus) damage score (rate 250 g/ha): 5
ECHCG (Echinochloa crus-galli) damage score (rate 250 g/ha): 2
SETFA (Setaria faberi) damage score (rate 250 g/ha): 4
ZEAMX (Zea mays) damage score (rate 250 g/ha): 1

COC1=C(C)C(=O)N(c2nccc(C(F)(F)F)c2F)C1O (centres unmarked) [AD7]
ABUTH (Abutilon theophrasti) damage score (rate 1000 g/ha): 5
ALOMY (Alopecurus myosuroides) damage score (rate 1000 g/ha): 5
AMARE (Amaranthus retroflexus) damage score (rate 1000 g/ha): 5
ECHCG (Echinochloa crus-galli) damage score (rate 1000 g/ha): 5
SETFA (Setaria faberi) damage score (rate 1000 g/ha): 5
ZEAMX (Zea mays) damage score (rate 1000 g/ha): 3
